Experimental data taken from ChEMBL document CHEMBL3813680, “Discovery of a 2-hydroxyacetophenone derivative as an outstanding linker to enhance potency and β-selectivity of liver X receptor agonist” (Bioorg Med Chem, 2016).
Active and inactive are the calls of the source. No cut-off for these calls is given here.

Key:
[1] = target: T1, Oxysterols receptor LXR-beta (Homo sapiens, UniProt P55055); assay: Agonist activity at GAL4 fused LXRbeta-LBD (unknown origin) transfected in CHOK1 cells after 24 hrs by luciferase reporter gene assay
T1 sequence (P55055 whole entry): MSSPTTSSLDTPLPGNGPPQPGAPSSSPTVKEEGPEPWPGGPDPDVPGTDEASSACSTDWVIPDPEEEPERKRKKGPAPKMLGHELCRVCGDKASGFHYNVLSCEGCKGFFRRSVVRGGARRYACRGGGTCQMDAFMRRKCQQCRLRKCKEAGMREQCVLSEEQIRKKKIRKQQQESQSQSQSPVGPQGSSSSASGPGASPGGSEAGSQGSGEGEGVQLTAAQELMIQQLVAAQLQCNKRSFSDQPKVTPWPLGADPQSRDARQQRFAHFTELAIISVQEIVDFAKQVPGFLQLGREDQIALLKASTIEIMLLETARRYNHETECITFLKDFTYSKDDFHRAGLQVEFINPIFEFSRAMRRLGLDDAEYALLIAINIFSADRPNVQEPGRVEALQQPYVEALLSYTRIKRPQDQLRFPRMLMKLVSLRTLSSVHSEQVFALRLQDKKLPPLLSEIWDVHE

CHO-K1 = assay: Selectivity ratio of EC50 for GAL4 fused LXRalpha (unknown origin) transfected in CHOK1 cells to EC50 for GAL4 fused LXRbeta-LBD (unknown origin) transfected in CHOK1 cells; format: cell-based; conditions: Homo sapiens
[2] = target: T2, Oxysterols receptor LXR-beta (Homo sapiens) (UniProt P55055); assay: Agonist activity at GAL4 fused LXRbeta-LBD (unknown origin) transfected in CHOK1 cells at 10 uM after 24 hrs by luciferase reporter gene assay in presence of T0901317; format: cell-based; conditions: CHO-K1
T2 sequence (whole entry): T1 sequence (P55055 whole entry)

[3] = target: T3, Oxysterols receptor LXR-alpha (Homo sapiens) (UniProt Q13133); assay: Agonist activity at GAL4 fused LXRalpha (unknown origin) transfected in CHOK1 cells at 10 uM after 24 hrs by luciferase reporter gene assay; format: cell-based; conditions: CHO-K1
T3 sequence (whole entry): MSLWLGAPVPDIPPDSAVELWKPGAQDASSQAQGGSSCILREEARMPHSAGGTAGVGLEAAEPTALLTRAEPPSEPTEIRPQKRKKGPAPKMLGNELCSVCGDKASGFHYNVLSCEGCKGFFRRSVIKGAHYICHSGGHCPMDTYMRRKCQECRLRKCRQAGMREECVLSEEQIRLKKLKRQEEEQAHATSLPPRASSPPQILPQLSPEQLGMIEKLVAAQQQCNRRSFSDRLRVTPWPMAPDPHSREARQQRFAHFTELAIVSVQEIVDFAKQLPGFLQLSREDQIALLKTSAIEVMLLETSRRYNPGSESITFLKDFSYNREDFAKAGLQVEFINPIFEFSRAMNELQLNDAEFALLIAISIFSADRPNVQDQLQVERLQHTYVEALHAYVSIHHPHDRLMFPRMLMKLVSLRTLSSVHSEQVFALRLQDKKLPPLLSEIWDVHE

[4] = target: T3, Oxysterols receptor LXR-alpha (Homo sapiens); assay: Agonist activity at GAL4 fused LXRalpha (unknown origin) transfected in CHOK1 cells at 10 uM after 24 hrs by luciferase reporter gene assay in presence of T0901317; format: cell-based; conditions: CHO-K1
Mus musculus [5] = assay: Antiatherosclerosis activity in LDL receptor knock out mouse model assessed as decrease in TC levels at 10 mg/kg, po by HPLC analysis relative to control; format: functional; parameters: scale not given: the % may be the effect or the level left
Mus musculus [6] = assay: Antiatherosclerosis activity in LDL receptor knock out mouse model assessed as decrease in LDL-C levels at 10 mg/kg, po by HPLC analysis relative to control; format: functional; parameters: scale not given: the % may be the effect or the level left
Mus musculus [7] = assay: Antiatherosclerosis activity in LDL receptor knock out mouse model assessed as […] in HDL-C levels at 10 mg/kg, po by HPLC analysis relative to control; format: functional; parameters: scale not given: the % may be the effect or the level left
Mus musculus [8] = assay: Antiatherosclerosis activity in LDL receptor knock out mouse model assessed as increase in TG levels at 10 mg/kg, po by HPLC analysis relative to control; format: functional
Mus musculus [9] = assay: Antiatherosclerosis activity in LDL receptor knock out mouse model assessed as decrease in area of lipid accumulation at 10 mg/kg, po by HPLC analysis relative to control; format: functional; parameters: scale not given: the % may be the effect or the level left
[10] = target: T4, Oxysterols receptor LXR-alpha (Homo sapiens, UniProt Q13133); assay: Agonist activity at GAL4 fused LXRalpha (unknown origin) transfected in CHOK1 cells after 24 hrs by luciferase reporter gene assay
T4 sequence (Q13133 whole entry): T3 sequence (whole entry)

[11] = Cmax in mouse plasma at 100 mg/kg, po measured up to 24 hrs by HPLC-LC-MS/MS analysis; format: ADME, organism-based; parameters: dose 100 mg/kg, route oral
[12] = AUC in mouse plasma at 100 mg/kg, po measured up to 24 hrs by HPLC-LC-MS/MS analysis; format: ADME, organism-based; parameters: dose 100 mg/kg, time < 24 hr, route oral
[13] = Intrinsic clearance in mouse liver microsomes at 1 umol/L; format: ADME; conditions: read-out: CLH
[14] = Intrinsic clearance in human liver microsomes at 1 umol/L; format: ADME; conditions: read-out: CLH
[15] = Intrinsic clearance in hamster liver microsomes at 1 umol/L; format: ADME; conditions: cricetinae, read-out: CLH
[16] = target: T2, Oxysterols receptor LXR-beta (Homo sapiens); assay: Agonist activity at GAL4 fused LXRbeta-LBD (unknown origin) transfected in CHOK1 cells at 10 uM after 24 hrs by luciferase reporter gene assay; format: cell-based; conditions: CHO-K1

Row | Compound | EC50 [1] [nM] | Ratio EC50 (CHO-K1) | Emax [2] [%] | Activity [3] | Emax [4] [%] | EC50 [10] [nM] | other results
1 | CCCc1cc(C(O)(C(F)(F)F)C(F)(F)F)ccc1Oc1ccc(CCN2C(=O)NC(C)(c3ccc(OC(C)C)cc3)C2=O)c(OC)c1 (stereo not drawn) | 1660 | 6.02 | 534 | inactive | 0 |  | 
2 | O=S(=O)(c1ccccc1)N(CC(F)(F)F)c1ccc(C(O)(C(F)(F)F)C(F)(F)F)cc1 [T091317] |  |  |  |  |  |  | Activity (Mus musculus [5]): 96%; Activity (Mus musculus [6]): 55%; Activity (Mus musculus [7]): 47%; Activity (Mus musculus [8]): 465%; Activity (Mus musculus [9]): 40%
3 | CCCc1cc(C(O)(C(F)(F)F)C(F)(F)F)cc(CCC)c1OCC#CCN1C(=O)NC(C)(c2ccc(OC(C)C)cc2)C1=O (stereo not drawn) | 610 | 1.41 | 149 |  | 27 | 860 | 
4 | CCCc1cc(C(O)(C(F)(F)F)C(F)(F)F)cc(CCC)c1OCCCCN1C(=O)NC(C)(c2ccc(OC(C)C)cc2)C1=O (racemic) |  |  |  |  |  |  | Cmax [11]: 406 ng/mL; AUC at 24 h [12]: 3420 ng·h/mL
5 | CCCc1cc(C(O)(C(F)(F)F)C(F)(F)F)ccc1Oc1cccc(CCN2C(=O)NC(C)(c3ccc(OC(C)C)cc3)C2=O)c1 (stereo not drawn) | 2850 | 1.01 | 126 |  | 23 | 2890 | 
6 | CCCc1cc(C(O)(C(F)(F)F)C(F)(F)F)ccc1Oc1ccc(C(=O)CN2C(=O)NC(C)(c3ccc(OC(C)C)cc3)C2=O)c(OC)c1 (stereo not drawn) | 360 | 10.4 | 306 |  | 38 | 3740 | 
7 | CCCc1cc(C(O)(C(F)(F)F)C(F)(F)F)ccc1Oc1ccc(C(=O)CN2C(=O)NC(C)(c3ccc(OC(C)C)cn3)C2=O)c(O)c1 (single isomer, unassigned; (+)) [listing 1 of 2 here] | 2900 |  |  |  |  |  | 
8 | CCCc1cc(C(O)(C(F)(F)F)C(F)(F)F)ccc1Oc1ccc(C(=O)CN2C(=O)NC(C)(c3ccc(OC(C)C)cn3)C2=O)c(O)c1 (racemic) [listing 1 of 2 here] | 58 |  |  |  |  | 330 | microsomal CLint at 1 µM [13]: 24 µL/min/mg; microsomal CLint at 1 µM [14]: 7 µL/min/mg; microsomal CLint at 1 µM [15]: 11 µL/min/mg
9 | CCCc1cc(C(O)(C(F)(F)F)C(F)(F)F)ccc1Oc1ccc(CCN2C(=O)NC(C)(c3ccc(OC(C)C)cc3)C2=O)c(O)c1 (stereo not drawn) | 2870 | 3.48 | 284 | inactive | 1 |  | 
10 | CCCc1cc(C(O)(C(F)(F)F)C(F)(F)F)ccc1Oc1ccc(CN2C(=O)NC(C)(c3ccc(OC(C)C)cc3)C2=O)cc1 (stereo not drawn) | 1810 | > 5.52 | 22 | inactive | 0 |  | 
11 | CCCc1cc(C(O)(C(F)(F)F)C(F)(F)F)ccc1Oc1ccc(C(=O)CN2C(=O)NC(C)(c3ccc(OC(C)C)cc3)C2=O)cc1 (stereo not drawn) | 120 | 3 | 236 |  | 46 | 360 | 
12 | CCCc1cc(C(O)(C(F)(F)F)C(F)(F)F)ccc1Oc1ccc(CCN2C(=O)NC(C)(c3ccc(OC(C)C)cc3)C2=O)cc1 (stereo not drawn) | 1880 | > 5.32 | 223 | inactive | 1 |  | 
13 | CCCc1cc(C(O)(C(F)(F)F)C(F)(F)F)ccc1Oc1ccc(C(=O)CN2C(=O)NC(C)(c3ccc(OC(C)C)cc3)C2=O)c(C)c1 (stereo not drawn) | 64 | 6.25 | 264 |  | 71 | 400 | 
14 | CCCc1cc(C(O)(C(F)(F)F)C(F)(F)F)ccc1Oc1ccc(CCN2C(=O)NC(C)(c3ccc(OC(C)C)cc3)C2=O)c(C)c1 (stereo not drawn) | 700 | 4.89 | 615 |  | 53 | 3140 | 
15 | CCCc1cc(C(O)(C(F)(F)F)C(F)(F)F)ccc1Oc1ccc(C(=O)CN2C(=O)NC(C)(c3ccc(OC(C)C)cn3)C2=O)c(O)c1 (single isomer, unassigned; (-)) |  |  | 255 |  | 164 |  | 
16 | CCCc1cc(C(O)(C(F)(F)F)C(F)(F)F)ccc1Oc1cccc(CN2C(=O)NC(C)(c3ccc(OC(C)C)cc3)C2=O)c1 (stereo not drawn) | 500 | 3.92 | 429 |  | 53 | 1960 | 
17 | CCCc1cc(C(O)(C(F)(F)F)C(F)(F)F)ccc1Oc1ccc(C(=O)CN2C(=O)NC(C)(c3ccc(OC(C)C)cc3)C2=O)c(O)c1 (stereo not drawn) | 110 | 3.09 | 348 |  | 55 | 340 | microsomal CLint at 1 µM [13]: 76 µL/min/mg; microsomal CLint at 1 µM [14]: 12 µL/min/mg; microsomal CLint at 1 µM [15]: 27 µL/min/mg
18 | CCCc1cc(C(O)(C(F)(F)F)C(F)(F)F)ccc1Oc1ccc(C(=O)CN2C(=O)NC(C)(c3ccc(OC(C)C)cn3)C2=O)c(O)c1 (racemic) [listing 2 of 2 here] |  | 5.69 | 329 |  | 68 |  | 
19 | CCCc1cc(C(O)(C(F)(F)F)C(F)(F)F)cc(CCC)c1OC/C=C/CN1C(=O)NC(C)(c2ccc(OC(C)C)cc2)C1=O (stereo not drawn) | 800 | 1.54 | 182 |  | 40 | 1230 | 
20 | CCCc1cc(C(O)(C(F)(F)F)C(F)(F)F)ccc1Oc1ccc(C(=O)CN2C(=O)NC(C)(c3ccc(OC(C)C)cn3)C2=O)c(O)c1 (single isomer, unassigned; (+)) [listing 2 of 2 here] |  |  | 269 | inactive | 25 |  | 
21 | CCCc1cc(C(O)(C(F)(F)F)C(F)(F)F)ccc1Oc1ccc(C(O)CN2C(=O)NC(C)(c3ccc(OC(C)C)cc3)C2=O)cc1 (stereo not drawn) | 2330 | 4.29 | 176 | inactive | 5 |  | 
22 | CCCc1cc(C(O)(C(F)(F)F)C(F)(F)F)cc(CCC)c1OC/C=C\CN1C(=O)NC(C)(c2ccc(OC(C)C)cc2)C1=O (stereo not drawn) |  |  | 1 | inactive | 0 |  | Activity [16]: inactive
